Measurements from US11771738B2 (Zoetis Services LLC, priority 2018, dated 2023).
Marks after values point to notes of the source that are not given here.

Tested on: third stage larvae of Haemonchus contortus
Experiment: Haemonchus contortus, Larvae Stage 3 (HcL3) In Vitro Assay
Assay type: cell-based
Details: Haemonchus contortus third stage larvae in vitro; class mark appended to the Ex # in Table 3

Row | SMILES | HcL3 MED
1 | CC(C)C[C@H]1C(=O)O[C@H](Cc2ccc(Cc3cccnc3)cc2)C(=O)N(C)[C@@H](CC(C)C)C(=O)O[C@H](C)C(=O)N(C)[C@@H](CC(C)C)C(=O)O[C@H](Cc2ccc(Cc3cccnc3)cc2)C(=O)N(C)[C@@H](CC(C)C)C(=O)O[C@H](C)C(=O)N1C [Example 3-3] | 3-3^ (Examples with a carrot (^) have HcL3 MED values>1 and ≤3.3 μM)
2 | CC(C)C[C@H]1C(=O)O[C@H](Cc2ccc(Cc3nncs3)cc2)C(=O)N(C)[C@@H](CC(C)C)C(=O)O[C@H](C)C(=O)N(C)[C@@H](CC(C)C)C(=O)O[C@H](Cc2ccc(Cc3nncs3)cc2)C(=O)N(C)[C@@H](CC(C)C)C(=O)O[C@H](C)C(=O)N1C [Example 3-14] | 3-14* (Examples with an asterisk (*) have HcL3 MED values≤1 μM)
3 | CC(C)C[C@H]1C(=O)O[C@H](Cc2ccc(Cc3ccccn3)cc2)C(=O)N(C)[C@@H](CC(C)C)C(=O)O[C@H](C)C(=O)N(C)[C@@H](CC(C)C)C(=O)O[C@H](Cc2ccc(Cc3ccccn3)cc2)C(=O)N(C)[C@@H](CC(C)C)C(=O)O[C@H](C)C(=O)N1C [Example 3-27] | 3-27^ (Examples with a carrot (^) have HcL3 MED values>1 and ≤3.3 μM)
4 | CC(C)C[C@H]1C(=O)O[C@H](Cc2ccc(Cc3nc(-c4ccccc4)cs3)cc2)C(=O)N(C)[C@@H](CC(C)C)C(=O)O[C@H](C)C(=O)N(C)[C@@H](CC(C)C)C(=O)O[C@H](Cc2ccc(Cc3nc(-c4ccccc4)cs3)cc2)C(=O)N(C)[C@@H](CC(C)C)C(=O)O[C@H](C)C(=O)N1C [Example 3-36] | 3-36* (Examples with an asterisk (*) have HcL3 MED values≤1 μM)
5 | CC(C)C[C@H]1C(=O)O[C@H](Cc2ccc(Cc3cscn3)cc2)C(=O)N(C)[C@@H](CC(C)C)C(=O)O[C@H](C)C(=O)N(C)[C@@H](CC(C)C)C(=O)O[C@H](Cc2ccc(Cc3cscn3)cc2)C(=O)N(C)[C@@H](CC(C)C)C(=O)O[C@H](C)C(=O)N1C [Example 3-45] | 3-45* (Examples with an asterisk (*) have HcL3 MED values≤1 μM)
6 | Cc1nc(C)c(Cc2ccc(C[C@H]3OC(=O)[C@H](CC(C)C)N(C)C(=O)[C@@H](C)OC(=O)[C@H](CC(C)C)N(C)C(=O)[C@@H](Cc4ccc(Cc5sc(C)nc5C)cc4)OC(=O)[C@H](CC(C)C)N(C)C(=O)[C@@H](C)OC(=O)[C@H](CC(C)C)N(C)C3=O)cc2)s1 [Example 3-52] | 3-52* (Examples with an asterisk (*) have HcL3 MED values≤1 μM)
7 | CC(C)C[C@H]1C(=O)O[C@H](Cc2ccc(Cc3ncccn3)cc2)C(=O)N(C)[C@@H](CC(C)C)C(=O)O[C@H](C)C(=O)N(C)[C@@H](CC(C)C)C(=O)O[C@H](Cc2ccc(Cc3ncccn3)cc2)C(=O)N(C)[C@@H](CC(C)C)C(=O)O[C@H](C)C(=O)N1C [Example 3-73] | 3-73* (Examples with an asterisk (*) have HcL3 MED values≤1 μM)
8 | Cc1nc(Cc2ccc(C[C@H]3OC(=O)[C@H](CC(C)C)N(C)C(=O)[C@@H](C)OC(=O)[C@H](CC(C)C)N(C)C(=O)[C@@H](Cc4ccc(Cc5csc(C)n5)cc4)OC(=O)[C@H](CC(C)C)N(C)C(=O)[C@@H](C)OC(=O)[C@H](CC(C)C)N(C)C3=O)cc2)cs1 [Example 3-76] | 3-76^ (Examples with a carrot (^) have HcL3 MED values>1 and ≤3.3 μM)
9 | Cc1nc(Cc2ccc(C[C@H]3OC(=O)[C@H](CC(C)C)N(C)C(=O)[C@@H](C)OC(=O)[C@H](CC(C)C)N(C)C(=O)[C@@H](Cc4ccc(Cc5nc(C)oc5C)cc4)OC(=O)[C@H](CC(C)C)N(C)C(=O)[C@@H](C)OC(=O)[C@H](CC(C)C)N(C)C3=O)cc2)c(C)o1 [Example 3-81] | 3-81^ (Examples with a carrot (^) have HcL3 MED values>1 and ≤3.3 μM)
10 | COc1cc(Cc2ccc(C[C@H]3OC(=O)[C@H](CC(C)C)N(C)C(=O)[C@@H](C)OC(=O)[C@H](CC(C)C)N(C)C(=O)[C@@H](Cc4ccc(Cc5cnc(OC)c(OC)c5)cc4)OC(=O)[C@H](CC(C)C)N(C)C(=O)[C@@H](C)OC(=O)[C@H](CC(C)C)N(C)C3=O)cc2)cnc1OC [Example 3-115] | 3-115^ (Examples with a carrot (^) have HcL3 MED values>1 and ≤3.3 μM)
11 | CC(C)C[C@H]1C(=O)O[C@H](Cc2ccc(Cc3cnn(C(F)F)c3)cc2)C(=O)N(C)[C@@H](CC(C)C)C(=O)O[C@H](C)C(=O)N(C)[C@@H](CC(C)C)C(=O)O[C@H](Cc2ccc(Cc3cnn(C(F)F)c3)cc2)C(=O)N(C)[C@@H](CC(C)C)C(=O)O[C@H](C)C(=O)N1C [Example 3-119] | 3-119* (Examples with an asterisk (*) have HcL3 MED values≤1 μM)
12 | Cc1nnsc1C(O)c1ccc(C[C@H]2OC(=O)[C@H](CC(C)C)N(C)C(=O)[C@@H](C)OC(=O)[C@H](CC(C)C)N(C)C(=O)[C@@H](Cc3ccc(C(O)c4snnc4C)cc3)OC(=O)[C@H](CC(C)C)N(C)C(=O)[C@@H](C)OC(=O)[C@H](CC(C)C)N(C)C2=O)cc1 (some centres unmarked) [Example 3-126] | 3-126* (Examples with an asterisk (*) have HcL3 MED values≤1 μM)
13 | COc1cc(Cc2ccc(C[C@H]3OC(=O)[C@H](CC(C)C)N(C)C(=O)[C@@H](C)OC(=O)[C@H](CC(C)C)N(C)C(=O)[C@@H](Cc4ccc(Cc5ccnc(OC)c5)cc4)OC(=O)[C@H](CC(C)C)N(C)C(=O)[C@@H](C)OC(=O)[C@H](CC(C)C)N(C)C3=O)cc2)ccn1 [Example 3-192] | 3-192^ (Examples with a carrot (^) have HcL3 MED values>1 and ≤3.3 μM)
14 | CC(C)C[C@H]1C(=O)O[C@H](Cc2ccc(Cc3ccnn3CC(C)C)cc2)C(=O)N(C)[C@@H](CC(C)C)C(=O)O[C@H](C)C(=O)N(C)[C@@H](CC(C)C)C(=O)O[C@H](Cc2ccc(Cc3ccnn3CC(C)C)cc2)C(=O)N(C)[C@@H](CC(C)C)C(=O)O[C@H](C)C(=O)N1C [Example 3-211] | 3-211^ (Examples with a carrot (^) have HcL3 MED values>1 and ≤3.3 μM)
15 | Cc1ncc(Cc2ccc(C[C@H]3OC(=O)[C@H](CC(C)C)N(C)C(=O)[C@@H](C)OC(=O)[C@H](CC(C)C)N(C)C(=O)[C@@H](Cc4ccc(Cc5cnc(C)o5)cc4)OC(=O)[C@H](CC(C)C)N(C)C(=O)[C@@H](C)OC(=O)[C@H](CC(C)C)N(C)C3=O)cc2)o1 [Example 3-298] | 3-298^ (Examples with a carrot (^) have HcL3 MED values>1 and ≤3.3 μM)
16 | CC(C)C[C@H]1C(=O)O[C@H](Cc2ccc(Cc3cc[nH]n3)cc2)C(=O)N(C)[C@@H](CC(C)C)C(=O)O[C@H](C)C(=O)N(C)[C@@H](CC(C)C)C(=O)O[C@H](Cc2ccc(Cc3cc[nH]n3)cc2)C(=O)N(C)[C@@H](CC(C)C)C(=O)O[C@H](C)C(=O)N1C [Example 3-301] | 3-301^ (Examples with a carrot (^) have HcL3 MED values>1 and ≤3.3 μM)
17 | CCCn1nccc1Cc1ccc(C[C@H]2OC(=O)[C@H](CC(C)C)N(C)C(=O)[C@@H](C)OC(=O)[C@H](CC(C)C)N(C)C(=O)[C@@H](Cc3ccc(Cc4ccnn4CCC)cc3)OC(=O)[C@H](CC(C)C)N(C)C(=O)[C@@H](C)OC(=O)[C@H](CC(C)C)N(C)C2=O)cc1 [Example 3-303] | 3-303* (Examples with an asterisk (*) have HcL3 MED values≤1 μM)
18 | CC(C)C[C@H]1C(=O)O[C@H](Cc2ccc(Cc3ccnn3C(C)C)cc2)C(=O)N(C)[C@@H](CC(C)C)C(=O)O[C@H](C)C(=O)N(C)[C@@H](CC(C)C)C(=O)O[C@H](Cc2ccc(Cc3ccnn3C(C)C)cc2)C(=O)N(C)[C@@H](CC(C)C)C(=O)O[C@H](C)C(=O)N1C [Example 3-305] | 3-305* (Examples with an asterisk (*) have HcL3 MED values≤1 μM)
19 | CC(C)C[C@H]1C(=O)O[C@H](Cc2ccc(Cc3cnccc3C3CC3)cc2)C(=O)N(C)[C@@H](CC(C)C)C(=O)O[C@H](C)C(=O)N(C)[C@@H](CC(C)C)C(=O)O[C@H](Cc2ccc(Cc3cnccc3C3CC3)cc2)C(=O)N(C)[C@@H](CC(C)C)C(=O)O[C@H](C)C(=O)N1C [Example 3-306] | 3-306* (Examples with an asterisk (*) have HcL3 MED values≤1 μM)

Same assay, conditions: approximately 96 hours incubation; multiple-resistant field isolate

Row | SMILES | HcL3 MED (symbol after Ex#)
20 | COc1cc(F)ccc1Cc1ccc(C[C@H]2OC(=O)[C@H](CC(C)C)N(C)C(=O)[C@@H](C)OC(=O)[C@H](CC(C)C)N(C)C(=O)[C@@H](Cc3ccccc3)OC(=O)[C@H](CC(C)C)N(C)C(=O)[C@@H](C)OC(=O)[C@H](CC(C)C)N(C)C2=O)cc1 [Example 2-9] | 2-9* (Examples with an asterisk (*) have HcL3 MED values≤1 μM)
21 | COc1ccccc1Cc1ccc(C[C@H]2OC(=O)[C@H](CC(C)C)N(C)C(=O)[C@@H](C)OC(=O)[C@H](CC(C)C)N(C)C(=O)[C@@H](Cc3ccccc3)OC(=O)[C@H](CC(C)C)N(C)C(=O)[C@@H](C)OC(=O)[C@H](CC(C)C)N(C)C2=O)cc1 [Example 2-12] | 2-12^ (Examples with a carrot (^) have HcL3 MED values>1 and ≤3.3 μM)
22 | Cc1nn(C)cc1Cc1ccc(C[C@H]2OC(=O)[C@H](CC(C)C)N(C)C(=O)[C@@H](C)OC(=O)[C@H](CC(C)C)N(C)C(=O)[C@@H](Cc3ccccc3)OC(=O)[C@H](CC(C)C)N(C)C(=O)[C@@H](C)OC(=O)[C@H](CC(C)C)N(C)C2=O)cc1 [Example 4-3] | 4-3^ (Examples with a carrot (^) have HcL3 MED values>1 and ≤3.3 μM)
23 | CC(C)C[C@H]1C(=O)O[C@H](Cc2ccc(Cc3cccs3)cc2)C(=O)N(C)[C@@H](CC(C)C)C(=O)O[C@H](C)C(=O)N(C)[C@@H](CC(C)C)C(=O)O[C@H](Cc2ccccc2)C(=O)N(C)[C@@H](CC(C)C)C(=O)O[C@H](C)C(=O)N1C [Example 4-5] | 4-5^ (Examples with a carrot (^) have HcL3 MED values>1 and ≤3.3 μM)
24 | COc1ncccc1Cc1ccc(C[C@H]2OC(=O)[C@H](CC(C)C)N(C)C(=O)[C@@H](C)OC(=O)[C@H](CC(C)C)N(C)C(=O)[C@@H](Cc3ccccc3)OC(=O)[C@H](CC(C)C)N(C)C(=O)[C@@H](C)OC(=O)[C@H](CC(C)C)N(C)C2=O)cc1 [Example 4-22] | 4-22^ (Examples with a carrot (^) have HcL3 MED values>1 and ≤3.3 μM)
25 | CC(C)C[C@H]1C(=O)O[C@H](Cc2ccc(Cc3nccs3)cc2)C(=O)N(C)[C@@H](CC(C)C)C(=O)O[C@H](C)C(=O)N(C)[C@@H](CC(C)C)C(=O)O[C@H](Cc2ccccc2)C(=O)N(C)[C@@H](CC(C)C)C(=O)O[C@H](C)C(=O)N1C [Example 4-31] | 4-31* (Examples with an asterisk (*) have HcL3 MED values≤1 μM)
26 | CC(C)C[C@H]1C(=O)O[C@H](Cc2ccc(Cc3cncs3)cc2)C(=O)N(C)[C@@H](CC(C)C)C(=O)O[C@H](C)C(=O)N(C)[C@@H](CC(C)C)C(=O)O[C@H](Cc2ccccc2)C(=O)N(C)[C@@H](CC(C)C)C(=O)O[C@H](C)C(=O)N1C [Example 4-35] | 4-35^ (Examples with a carrot (^) have HcL3 MED values>1 and ≤3.3 μM)
